In brackets after ≈: the same amount, converted by molar mass.
Columns and labels:
S. typhimirium (772) = experiment: overnight disk diffusion test; type: cell-based; conditions: 16 hrs 37 C
Procedure: (§1) Infecting bacteria (10^6 cells/ml from overnight grown cultures) were spread on LA plates on which 15 mm disks, saturated with various antibiotics, had been placed. After incubating the plates at 37 degrees Celsius for 16 hrs the zone of inhibition was determined for each strain. (Abbreviations used in FIG. 1a and Table 1a: CAP—Chloramphenicol; KAN—Kanamycin; AMP—Ampicillin; CEP—Cephamezin GEN—Gentamycin).

E. coli (W4110) = experiment: overnight disk diffusion test; type: cell-based; conditions: 16 hrs 37 C
Procedure: as §1

P. aeroginosa [1] = experiment: overnight disk diffusion test; type: cell-based; conditions: 16 hrs 37 C
Procedure: as §1

[2] = tested on: infecting bacteria of urine samples; experiment: antibiotics disc inhibition zone, urine samples (standard analysis); type: cell-based
Procedure: A standard analysis (urine culture colony count) was performed to evaluate bacterial load (Table 5a) and antibiotic susceptibility (Table 5b).

S. aureus [3] = experiment: BLT (bioluminescence test) MIC determination
[4] = tested on: infecting bacteria of urine samples; experiment: BLT antibiotic susceptibility of urine samples; type: cell-based; design: BLT (luminescence): unit not given here; conditions: for BLT (luminescence): 3 hrs 37 C, concentrations given in Table 5; on antibiotic susceptibility of urine samples: key: R = resistant; S = susceptible
Procedure: Six fresh urine samples were obtained from a local clinic and examined for bacteriuria (>10^5 cells/mL urine) and the antibiotic susceptibility of the infecting bacteriuria. A tube containing a an antibiotic mixture that would eliminate all infecting bacteria but not effect the lux cells (Ampicillin, Kanamycin, Tetracyclin, and Chloramphenicol) served as a control.
Each urine sample was diluted in Medium 1 to yield a final concentration of 3%. 0.1 mL of the diluted samples were then incubated for 3 hrs. at 37 degrees Celsius in a microtitre plate, with or without an antimicrobial substance at the concentrations given in Table 5).
An equal volume of Medium 2 containing 10 ng/ml autoinducer and supplemented with 10^6 of the lux cells was then added to each well. The microtiter plate was then incubated at 28 degrees/Celsius and the luminescence was measured using a plate reader luminometer.
Luminescence was measured in the absence of antibiotics, in the presence of a mixture of antibiotics and in the presence of a single antibiotic from the mixture.
When the ratio of the luminescence measured in the presence of the single antibiotic to that measured in the presence of the antibiotic mix exceeds a second predetermined constant (e.g. 3) then the infecting bacteria are […] to the antibiotic.

S. typhi (772) = experiment: Gram differentiation with CTAB, tester bacteria luminescence; type: cell-based; conditions: +CTAB (3 ppm), 2 hrs 37 C, read after 60 min
Procedure: (§2) Gram-positive bacteria are more sensitive than Gram-negative bacteria to low concentrations of the cationic detergent CTAB. Overnight grown cultures of different strains of infecting bacteria were washed and suspended in saline. About 10^5 cells/well were aliquoted in 0.1 mL Medium 1 (Davis, 0.1% glucose, 25 ppm YE) in microtiter plates with or without 3 ppm of CTAB. After 2 hrs at 37 degrees Centigrade/Celsius?, 0.15 mL of Medium 2 (+10 ng/mL autoinducer) were added to each well, together with 10^6 cells/mL lux-cells. Luminescence was recorded after 60 min.

P. aeroginosa [5] = experiment: as above; type: cell-based; conditions: +CTAB (3 ppm), 2 hrs 37 C, read after 60 min
Procedure: as §2

Streptococcus sp. = experiment: as above; type: cell-based; conditions: +CTAB (3 ppm), 2 hrs 37 C, read after 60 min
Procedure: as §2

E. coli (W4100) = experiment: as above; type: cell-based; conditions: +CTAB (3 ppm), 2 hrs 37 C, read after 60 min
Procedure: as §2

S. aureus [6] = experiment: as above; type: cell-based; conditions: +CTAB (3 ppm), 2 hrs 37 C, read after 60 min
Procedure: as §2

S. typhi = experiment: microbe, parasite or virus in culture; type: cell-based

Compound	LU, fold increase over control (no antibiotics added) (S. aureus [3]; 0.781 ppm)	LU, fold increase over control (no antibiotics added) (S. aureus [3]; 1.562 ppm)	LU, fold increase over control (no antibiotics added) (S. aureus [3]; 3.125 ppm)	LU, fold increase over control (no antibiotics added) (S. aureus [3]; 6.25 ppm)	LU, fold increase over control (no antibiotics added) (S. aureus [3]; 12.5 ppm)	LU, fold increase over control (no antibiotics added) (S. aureus [3]; 25 ppm)	LU, fold increase over control (no antibiotics added) (S. aureus [3]; 50 ppm)	antibiotic susceptibility of urine samples ([4]; urine sample 1)	BLT (luminescence) ([4]; urine sample 1, 3% urine)	antibiotic susceptibility of urine samples ([4]; urine sample 2)	BLT (luminescence) ([4]; urine sample 2, 3% urine)	antibiotic susceptibility of urine samples ([4]; urine sample 3)	BLT (luminescence) ([4]; urine sample 3, 3% urine)	antibiotic susceptibility of urine samples ([4]; urine sample 4)	BLT (luminescence) ([4]; urine sample 4, 3% urine)	antibiotic susceptibility of urine samples ([4]; urine sample 5)	BLT (luminescence) ([4]; urine sample 5, 3% urine)	antibiotic susceptibility of urine samples ([4]; urine sample 6)	BLT (luminescence) ([4]; urine sample 6, 3% urine)	also measured
Gentamycin [Gentamicin]	1.2	1.3	1.5	3.1	3.6	3.4	6.5	S	53	S	44	S	30	S	36	S	11.5	S	35	zone of inhibition (S. typhimirium (772); disk 10 ppm): 20 mm; zone of inhibition (E. coli (W4110); disk 10 ppm): 15 mm; zone of inhibition (P. aeroginosa [1]; disk 10 ppm): 20 mm; Antibiotics disc inhibition zone ([2]; urine sample 1, 10 ppm): 4 mm; Antibiotics disc inhibition zone ([2]; urine sample 2, 10 ppm): 5 mm; Antibiotics disc inhibition zone ([2]; urine sample 3, 10 ppm): 6 mm; Antibiotics disc inhibition zone ([2]; urine sample 4, 10 ppm): 2 mm; Antibiotics disc inhibition zone ([2]; urine sample 6, 10 ppm): 5 mm; LU, fold increase over control (no antibiotics added) (S. aureus [3]; 0.39 ppm): 1.2; MIC (S. aureus [3]; lowest concentration giving two-fold increase of tester luminescence above control): 3.12-6.2 ppm
CCCCCCCCCCCCCCCC[N+](C)(C)C.[Br-] [CTAB, Cetyltrimethylammonium bromide]																				luminescence of tester bacteria (S. typhi (772)): 64 LU; luminescence of tester bacteria (P. aeroginosa [5]): 111 LU; luminescence of tester bacteria (Streptococcus sp.): 10,154 LU; luminescence of tester bacteria (E. coli (W4100)): 52 LU; luminescence of tester bacteria (S. aureus [6]): 80,405 LU
O=C(N[C@H](CO)[C@H](O)c1ccc([N+](=O)[O-])cc1)C(Cl)Cl [Chloramphenicol]	0.8	1.3	2.8	5.2	7.2	11.5	17.6	S	62	S	46	S	36	S	31.2	S	13	S	41	zone of inhibition (S. typhimirium (772); disk 30 ppm): 30 mm; zone of inhibition (E. coli (W4110); disk 30 ppm): 25 mm; zone of inhibition (P. aeroginosa [1]; disk 30 ppm): 15 mm; LU, fold increase over control (no antibiotics added) (S. typhi; 0.19 ppm): 0.7; LU, fold increase over control (no antibiotics added) (S. typhi; 0.39 ppm): 0.72; LU, fold increase over control (no antibiotics added) (S. typhi; 0.78 ppm): 0.63; LU, fold increase over control (no antibiotics added) (S. typhi; 1.5 ppm): 0.74; LU, fold increase over control (no antibiotics added) (S. typhi; 3.1 ppm): 1.9; LU, fold increase over control (no antibiotics added) (S. typhi; 6.25 ppm): 3.61; LU, fold increase over control (no antibiotics added) (S. typhi; 12.5 ppm): 5.42; LU, fold increase over control (no antibiotics added) (S. typhi; 25 ppm): 6.84; LU, fold increase over control (no antibiotics added) (S. typhi; 50 ppm): 5.84; MIC (S. typhi; Salmonella enterica, TYPHI, lowest concentration giving two-fold increase of tester luminescence above control): ~3 mg/L (≈ 9.28 µM); Antibiotics disc inhibition zone ([2]; urine sample 1, 30 ppm): 5 mm; Antibiotics disc inhibition zone ([2]; urine sample 2, 30 ppm): 4 mm; Antibiotics disc inhibition zone ([2]; urine sample 3, 30 ppm): 7 mm; Antibiotics disc inhibition zone ([2]; urine sample 4, 30 ppm): 5 mm; Antibiotics disc inhibition zone ([2]; urine sample 6, 30 ppm): 6 mm; LU, fold increase over control (no antibiotics added) (S. aureus [3]; 100 ppm): 70.1; MIC (S. aureus [3]; Staphylococcus aureus): ~1.5 mg/L (≈ 4.64 µM)

From US20110097745A1, “Method For Detecting Microbes” (priority 2007, published 2011)
